From US20220289698A1, “INHIBITORS OF HUMAN ATGL” (Karl-Franzens-Universität Graz, priority 2019, published 2022)
Read-outs that look alike come from different tables or passages of the source.

Legend:
human ATGL [1] = molecular target: T1, human ATGL (Homo sapiens, UniProt Q96AD5); test: Ki determination, human ATGL lysates with increasing substrate concentrations; type: biochemical; settings: non-linear regression
T1 construct: made in house; host or cells: Expi cells (lysate, not purified)
T1 sequence (Q96AD5 1-504): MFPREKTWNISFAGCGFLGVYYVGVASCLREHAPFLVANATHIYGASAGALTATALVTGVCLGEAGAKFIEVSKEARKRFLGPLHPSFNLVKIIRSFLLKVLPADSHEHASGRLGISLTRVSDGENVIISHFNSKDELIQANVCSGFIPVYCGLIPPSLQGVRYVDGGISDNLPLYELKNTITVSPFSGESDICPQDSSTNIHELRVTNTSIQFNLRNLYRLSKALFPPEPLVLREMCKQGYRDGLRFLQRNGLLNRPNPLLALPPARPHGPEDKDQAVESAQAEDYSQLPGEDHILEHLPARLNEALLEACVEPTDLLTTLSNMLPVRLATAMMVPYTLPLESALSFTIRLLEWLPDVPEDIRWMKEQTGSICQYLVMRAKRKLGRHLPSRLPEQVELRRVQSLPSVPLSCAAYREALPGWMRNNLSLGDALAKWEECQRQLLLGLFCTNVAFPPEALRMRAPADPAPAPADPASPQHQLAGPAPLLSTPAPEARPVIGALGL
Description: For determination of Ki values, lysates from Expi cells overexpressing human ATGL were incubated with recombinant purified ATGL co-activator CGI-58 and ATGL inhibitors at a single concentration dependent on the previously determined IC50. Increasing concentrations of substrate containing radiolabeled triolein were added and liberated FA were extracted and quantified by liquid scintillation. Inhibitors were dissolved in DMSO which was used as control. Ki was determined via non-linear regression analysis. Samples were measured in triplicates.

[2] = tested on: differentiated hMADS adipocytes; test: Isoproterenol-stimulated lipolysis in differentiated hMADS adipocytes; type: cell-based; settings: Homo sapiens, Adipocyte, 2 h pretreatment, 1 μM isoproterenol 1 h
Description: Human differentiated hMADS adipocytes were pretreated with DMSO or ATGL inhibitors for 2 h. Subsequently, lipolysis was stimulated with 1 μM Isoproterenol for 1 h and fatty acid release was determined from media via NEFA Reagent (Wako Diagnostics). Samples were measured in triplicates.
Human differentiated hMADS adipocytes were pretreated with DMSO or ATGL inhibitors for 2 h. Subsequently, lipolysis was stimulated with 1 μM Isoproterenol for 1 h and glycerol release was determined from media via Free glycerol reagent (Sigma Aldrich). Samples were measured in triplicates.

human ATGL [3] = molecular target: T1, human ATGL; test: TG hydrolase activity, Expi cell lysates expressing human ATGL + CGI-58, radiolabelled triolein; type: biochemical
In short: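 Lysates of Expi cells expressing ATGL, supplemented with purified CGI-58 and inhibitor in DMSO, incubated 1 h at 37 °C with emulsified radiolabelled triolein (330 μM) in potassium phosphate pH 7.0 with 5% FA-free BSA. Released FA counted by liquid scintillation after phase extraction; IC50 versus DMSO control, duplicates.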

Stability in human serum = type: in vitro ADME; settings: 37° C., HPLC MS
Description: Inhibitors were incubated in human serum for 0 or 3 h at 37° C. and subsequently extracted with the MTBE method and analyzed via HPLC MS. Samples measured in triplicates.

HepG2 cells = test: Toxicity screening (LDH) in HepG2 cells; type: cell-based, human; settings: 24 h treatment, LDH release
Description: HepG2 cells were seeded in 96 well plates and at 50% confluency treated with DMSO (0.5% final conc.) or ATGL Inhibitors for 24 h in DMEM+P/S+3% heat inactivated FCS (3 h at 62° C.). Subsequently, LDH activity of 50 μl medium was determined via the Roche LDH Kit. Samples measured in triplicates.

murine ATGL = molecular target: T2, murine ATGL (Mus musculus, UniProt Q8BJ56); test: TG hydrolase activity, Expi lysates expressing mouse ATGL + CGI-58, radiolabelled triolein; type: biochemical
T2 construct: made in house; host or cells: Expi cells (lysate)
T2 sequence (Q8BJ56 1-486): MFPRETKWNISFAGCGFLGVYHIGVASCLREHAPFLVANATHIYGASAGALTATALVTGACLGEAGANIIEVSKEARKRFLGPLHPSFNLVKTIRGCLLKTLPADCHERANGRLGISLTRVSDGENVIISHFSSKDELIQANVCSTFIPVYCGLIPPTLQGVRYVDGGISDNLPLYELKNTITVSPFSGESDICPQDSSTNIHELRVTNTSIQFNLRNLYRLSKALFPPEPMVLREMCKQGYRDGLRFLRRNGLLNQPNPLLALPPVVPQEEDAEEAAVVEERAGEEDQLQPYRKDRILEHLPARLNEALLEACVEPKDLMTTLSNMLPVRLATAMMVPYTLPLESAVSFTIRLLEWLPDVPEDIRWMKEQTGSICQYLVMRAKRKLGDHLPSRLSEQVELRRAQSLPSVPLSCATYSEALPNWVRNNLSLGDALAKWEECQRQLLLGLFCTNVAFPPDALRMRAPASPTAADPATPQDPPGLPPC
In short: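 Lysates of Expi cells overexpressing mouse ATGL, with added recombinant CGI-58, were incubated with inhibitor at 50 μM. Substrate was emulsified radiolabelled triolein with PC/PI in 100 mM potassium phosphate pH 7.0 and 5% FA-free BSA, 1 h at 37° C. Released FA were extracted and counted by scintillation; triplicates, DMSO control.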

[4] = tested on: differentiated SGBS adipocytes; test: Isoproterenol-stimulated lipolysis in differentiated SGBS adipocytes; type: cell-based; settings: Homo sapiens, 2 h pretreatment, 1 μM isoproterenol 1 h
Description: Human differentiated SGBS adipocytes were pretreated with DMSO or ATGL inhibitors for 2 h. Subsequently, lipolysis was stimulated with 1 μM Isoproterenol for 1 h and fatty acid release was determined from media via NEFA Reagent (Wako Diagnostics). Samples were measured in triplicates.
Human differentiated SGBS adipocytes were pretreated with DMSO or ATGL inhibitors for 2 h. Subsequently, lipolysis was stimulated with 1 μM Isoproterenol for 1 h and glycerol release was determined from media via Free glycerol reagent (Sigma Aldrich). Samples were measured in triplicates.

hPNPLA9 = molecular target: T3, hPNPLA9 (Homo sapiens, UniProt O60733); test: hPNPLA9 off-target inhibition; type: biochemical; settings: read-out: hPNPLA9 off-target inhibition [% inhibition at 100 μM]
T3 construct: made in house; host or cells: Expi cells (lysate)
T3 sequence (O60733 1-806): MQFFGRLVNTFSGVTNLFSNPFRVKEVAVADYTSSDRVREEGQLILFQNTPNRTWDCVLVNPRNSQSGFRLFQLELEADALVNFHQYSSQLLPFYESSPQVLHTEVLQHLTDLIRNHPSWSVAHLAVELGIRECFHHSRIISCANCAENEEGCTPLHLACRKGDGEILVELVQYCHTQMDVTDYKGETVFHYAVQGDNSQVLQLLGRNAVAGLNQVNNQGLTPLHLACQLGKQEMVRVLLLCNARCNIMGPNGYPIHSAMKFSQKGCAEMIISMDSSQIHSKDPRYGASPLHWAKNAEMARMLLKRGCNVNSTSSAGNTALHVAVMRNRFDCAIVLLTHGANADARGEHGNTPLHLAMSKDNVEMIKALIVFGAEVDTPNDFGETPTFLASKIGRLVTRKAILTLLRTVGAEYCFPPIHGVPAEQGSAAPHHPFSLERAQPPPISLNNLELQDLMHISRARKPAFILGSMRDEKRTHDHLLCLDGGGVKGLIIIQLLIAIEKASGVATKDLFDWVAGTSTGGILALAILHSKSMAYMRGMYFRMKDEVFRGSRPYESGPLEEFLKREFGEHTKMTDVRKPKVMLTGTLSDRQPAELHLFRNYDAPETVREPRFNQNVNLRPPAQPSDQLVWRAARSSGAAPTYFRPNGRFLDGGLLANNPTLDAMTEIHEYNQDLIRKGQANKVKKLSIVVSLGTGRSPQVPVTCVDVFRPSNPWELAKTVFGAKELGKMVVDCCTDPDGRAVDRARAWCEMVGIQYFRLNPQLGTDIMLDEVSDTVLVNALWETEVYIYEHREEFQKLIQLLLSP
Description: Expi lysates expressing hPNPLA9 were treated with 100 μM Inhibitors and incubated with 1 mM C8 monoacylglycerol substrate (containing 5 mM CHAPS, 50 mM NaPh buffer ph7.4, 0.15 M NaCl) for 40 min. Glycerol release was determined via Free glycerol reagent (Sigma Aldrich). Samples measured in triplicates, […]

[5] = fatty acid release, read-out: IC50 hMADS FA release
[6] = glycerol release, read-out: IC50 hMADS glycerol release
[7] = Example 237, read-out: Inhibition of human ATGL − IC50
[8] = 50 μM compound, Example 237, read-out: Inhibition of murine ATGL at 50 μM − mean [%]
[9] = fatty acid release, read-out: IC50 SGBS FA release
[10] = glycerol release, read-out: IC50 SGBS glycerol release
[11] = 50 μM, overview table, read-out: mouse ATGL inhibition [% inhibition at 50 μM]

SMILES | Ki (human ATGL [1]) [µM] | IC50 [2, 5] [µM] | IC50 [2, 6] [µM] | IC50 (human ATGL [3]; [7]) [µM] | Stability in human serum [% rest after 3 h incubation] (Stability in human serum) [%] | Tox HepG2 (LDH) seen from (HepG2 cells) [µM] | inhibition at 50 µM (murine ATGL; [8]) [%] | melting point [°C] | IC50 [4, 9] [µM] | IC50 [4, 10] [µM] | inhibition at 50 µM (murine ATGL; [11]) [%] | inhibition at 100 µM (hPNPLA9) [%] | IC50 (human ATGL [3]; values of text and figure legend, read-out: IC50 on human ATGL (hATGL)) [µM]
C#CC(C)OC(=O)c1csc(-c2ccc(OCC)cc2)n1 (stereo not drawn) [Example 157, But-3-yn-2-yl 2-(4-ethoxyphenyl)thiazole-4-carboxylate] | 0.21 | 2.5 | 5 | 0.9 | – | – | – | – | – | – | – | – | –
COCc1ccc(-c2cc(OC)cc(C(=O)OC(C)C)n2)cc1 [Example 61] | 0.42 | 2 | – | 1 | 75 | 50 | – | – | – | – | – | – | –
CCCCCCc1ccc(-c2cccc(C(=O)OC(C)C)n2)cc1 [Example 68] | 0.27 | 1 | – | 1.5 | 80 | – | 0 | 34 to 35 | – | – | – | – | –
CCCOc1ccc(-c2nc(C(=O)OCC)cs2)cc1 [Example 105, Ethyl 2-(4-propoxyphenyl)thiazole-4-carboxylate] | – | – | – | 3 | – | – | 12.2 | – | 3 | 3 | – | – | –
C=C(C)COC(=O)c1csc(-c2ccc(OCC)cc2)n1 [Example 120, 2-Methylallyl 2-(4-ethoxyphenyl)thiazole-4-carboxylate] | 1.2 | – | – | 4 | 5 | – | 40.5 | – | – | – | 40 | – | –
CCOc1ccc(-c2cccc(C(=O)OC(C)C)n2)cc1 [Example 6] | – | – | – | 3 | – | – | 0 | – | 2 | – | – | 0 | –
C=CC(C)OC(=O)c1csc(-c2ccc(OCC)cc2)n1 (stereo not drawn) [Example 148, But-3-en-2-yl 2-(4-ethoxyphenyl)thiazole-4-carboxylate] | – | – | – | 2 | – | – | – | – | 2 | 3 | 30 | – | –
CC(C)OC(=O)c1cccc(-c2ccc(C(F)(F)F)cc2)n1 [Example 41] | 2.5 | – | – | 3 | 75 | – | 28.2 | 98 to 99 | – | – | – | – | –
CCCc1ccc(-c2cc(OC)cc(C(=O)OC(C)C)n2)cc1 [Example 53] | 0.55 | – | 80 | 1.5 | 80 | – | 0 | – | – | – | – | – | –
CCCc1ccc(-c2cccc(C(=O)OC(C)C)n2)cc1 [Example 43] | 0.47 | 3 | – | 2 | 80 | – | 9.8 | 104 to 107 | – | – | – | – | –
CCCCCCOc1ccc(-c2cccc(C(=O)OC(C)C)n2)cc1 [Example 69] | 0.83 | – | 80 | 1 | 80 | – | – | 68 to 70 | – | – | – | – | –
CCCCCCCOc1ccc(-c2cccc(C(=O)OC(C)C)n2)cc1 [Example 86] | 0.47 | 1 | – | 1.5 | 80 | – | 0 | 64 to 66 | – | – | – | – | –
CCOC(=O)c1csc(-c2ccc(OCC)cc2)n1 [Example 101, Ethyl 2-(4-ethoxyphenyl)thiazole-4-carboxylate] | 2.5 | – | – | – | 25 | – | 23.6 | – | 3 | 3 | 30 | – | 2.5
